From publication PMC8706783 (Pharmaceutics, 2021)
Values belong to the compound of their own block, whether it stands above or below them.

Assays:
UGT1A9 = biological target: T1, UGT1A9 (Homo sapiens, UniProt O60656); assay: Reaction phenotyping, rUGT1A9; details: recombinant UGT1A9, pH 7.4
T1 sequence (O60656 26-530): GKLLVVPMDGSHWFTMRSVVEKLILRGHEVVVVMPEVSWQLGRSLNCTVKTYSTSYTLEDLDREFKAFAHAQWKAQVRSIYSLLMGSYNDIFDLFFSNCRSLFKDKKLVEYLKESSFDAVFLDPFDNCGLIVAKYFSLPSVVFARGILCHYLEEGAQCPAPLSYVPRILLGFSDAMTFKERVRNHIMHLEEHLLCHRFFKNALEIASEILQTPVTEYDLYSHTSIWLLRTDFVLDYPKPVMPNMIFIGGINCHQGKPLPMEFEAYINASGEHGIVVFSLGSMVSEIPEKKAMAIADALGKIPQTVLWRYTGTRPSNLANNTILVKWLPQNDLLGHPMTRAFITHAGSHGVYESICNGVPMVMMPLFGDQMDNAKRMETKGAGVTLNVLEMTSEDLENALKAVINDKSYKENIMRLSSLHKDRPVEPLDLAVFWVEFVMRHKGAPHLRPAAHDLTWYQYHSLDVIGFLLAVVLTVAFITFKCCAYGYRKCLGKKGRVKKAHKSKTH

UGT1A7 = biological target: T2, UGT1A7 (Homo sapiens, UniProt Q9HAW7); assay: Reaction phenotyping, rUGT1A7; details: recombinant UGT1A7, pH 7.4
T2 sequence (Q9HAW7 26-530): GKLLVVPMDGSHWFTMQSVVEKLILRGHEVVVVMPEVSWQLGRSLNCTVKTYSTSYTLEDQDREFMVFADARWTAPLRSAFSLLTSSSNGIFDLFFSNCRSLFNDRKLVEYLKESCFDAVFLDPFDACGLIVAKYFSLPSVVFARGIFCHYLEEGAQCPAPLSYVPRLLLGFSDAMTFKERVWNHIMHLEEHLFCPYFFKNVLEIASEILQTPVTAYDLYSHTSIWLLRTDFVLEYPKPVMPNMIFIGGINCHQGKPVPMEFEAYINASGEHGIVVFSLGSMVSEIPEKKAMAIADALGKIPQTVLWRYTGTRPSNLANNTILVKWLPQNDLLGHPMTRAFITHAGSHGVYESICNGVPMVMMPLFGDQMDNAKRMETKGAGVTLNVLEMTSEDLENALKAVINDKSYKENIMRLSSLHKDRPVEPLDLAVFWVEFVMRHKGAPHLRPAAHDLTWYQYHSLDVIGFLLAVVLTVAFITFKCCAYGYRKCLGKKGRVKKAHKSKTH

UGT1A8 = biological target: T3, UGT1A8 (Homo sapiens, UniProt Q9HAW9); assay: Reaction phenotyping, rUGT1A8; details: recombinant UGT1A8, pH 7.4
T3 sequence (Q9HAW9 26-530): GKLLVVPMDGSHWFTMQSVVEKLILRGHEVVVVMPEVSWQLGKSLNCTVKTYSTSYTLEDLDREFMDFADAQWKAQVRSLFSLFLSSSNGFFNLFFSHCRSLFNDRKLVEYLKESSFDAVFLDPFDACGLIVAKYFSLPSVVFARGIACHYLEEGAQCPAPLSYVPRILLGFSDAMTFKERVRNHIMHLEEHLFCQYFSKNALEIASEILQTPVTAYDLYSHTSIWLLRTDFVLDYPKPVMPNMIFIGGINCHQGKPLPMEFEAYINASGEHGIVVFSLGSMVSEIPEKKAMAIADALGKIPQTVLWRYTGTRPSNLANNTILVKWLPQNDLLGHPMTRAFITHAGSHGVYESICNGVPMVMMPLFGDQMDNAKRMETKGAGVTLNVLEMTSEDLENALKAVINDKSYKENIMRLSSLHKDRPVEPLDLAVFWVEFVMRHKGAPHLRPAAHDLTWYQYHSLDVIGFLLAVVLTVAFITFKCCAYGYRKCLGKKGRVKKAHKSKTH

[1] = Reaction phenotyping, HLM with UDPGA; details: human, human liver microsomes, pH 7.4
UGT1A6 = biological target: T4, UGT1A6 (Homo sapiens, UniProt P19224); assay: Reaction phenotyping, rUGT1A6; details: recombinant UGT1A6, pH 7.4
T4 sequence (P19224 27-532): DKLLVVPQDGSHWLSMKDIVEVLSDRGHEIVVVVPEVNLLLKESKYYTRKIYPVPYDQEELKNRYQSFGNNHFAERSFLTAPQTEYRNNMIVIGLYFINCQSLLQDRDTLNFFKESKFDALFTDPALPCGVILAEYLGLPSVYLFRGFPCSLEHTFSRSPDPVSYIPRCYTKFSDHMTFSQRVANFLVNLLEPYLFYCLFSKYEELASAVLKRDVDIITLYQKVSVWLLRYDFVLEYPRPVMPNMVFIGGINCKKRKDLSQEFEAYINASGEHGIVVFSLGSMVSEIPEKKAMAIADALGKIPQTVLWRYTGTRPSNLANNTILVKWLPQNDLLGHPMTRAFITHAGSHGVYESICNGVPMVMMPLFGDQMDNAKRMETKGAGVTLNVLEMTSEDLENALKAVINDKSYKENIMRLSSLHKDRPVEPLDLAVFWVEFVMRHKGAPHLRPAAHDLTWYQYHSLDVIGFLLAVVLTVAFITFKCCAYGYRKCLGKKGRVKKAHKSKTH

UGT2B7 = biological target: T5, UGT2B7 (Homo sapiens, UniProt P16662); assay: Reaction phenotyping, rUGT2B7; details: recombinant UGT2B7, pH 7.4
T5 sequence (P16662 24-529): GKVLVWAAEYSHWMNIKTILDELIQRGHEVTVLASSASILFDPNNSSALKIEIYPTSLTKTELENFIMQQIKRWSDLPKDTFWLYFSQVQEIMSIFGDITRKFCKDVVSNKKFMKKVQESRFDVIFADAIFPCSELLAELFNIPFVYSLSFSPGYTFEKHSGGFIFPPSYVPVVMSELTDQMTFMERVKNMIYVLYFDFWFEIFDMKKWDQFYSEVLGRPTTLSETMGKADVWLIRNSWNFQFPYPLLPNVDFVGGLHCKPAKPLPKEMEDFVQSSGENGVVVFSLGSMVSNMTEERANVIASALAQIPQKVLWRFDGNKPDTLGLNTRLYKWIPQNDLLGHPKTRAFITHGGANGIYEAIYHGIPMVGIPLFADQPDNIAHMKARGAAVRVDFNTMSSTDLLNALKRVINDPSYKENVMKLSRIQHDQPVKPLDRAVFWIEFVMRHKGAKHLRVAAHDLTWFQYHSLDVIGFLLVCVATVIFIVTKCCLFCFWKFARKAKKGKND

rCYP1B1 = rCYP1B1 (Homo sapiens, UniProt Q16678); details: recombinant enzyme, 1 h
rCYP1B1, sequence (Q16678 whole entry): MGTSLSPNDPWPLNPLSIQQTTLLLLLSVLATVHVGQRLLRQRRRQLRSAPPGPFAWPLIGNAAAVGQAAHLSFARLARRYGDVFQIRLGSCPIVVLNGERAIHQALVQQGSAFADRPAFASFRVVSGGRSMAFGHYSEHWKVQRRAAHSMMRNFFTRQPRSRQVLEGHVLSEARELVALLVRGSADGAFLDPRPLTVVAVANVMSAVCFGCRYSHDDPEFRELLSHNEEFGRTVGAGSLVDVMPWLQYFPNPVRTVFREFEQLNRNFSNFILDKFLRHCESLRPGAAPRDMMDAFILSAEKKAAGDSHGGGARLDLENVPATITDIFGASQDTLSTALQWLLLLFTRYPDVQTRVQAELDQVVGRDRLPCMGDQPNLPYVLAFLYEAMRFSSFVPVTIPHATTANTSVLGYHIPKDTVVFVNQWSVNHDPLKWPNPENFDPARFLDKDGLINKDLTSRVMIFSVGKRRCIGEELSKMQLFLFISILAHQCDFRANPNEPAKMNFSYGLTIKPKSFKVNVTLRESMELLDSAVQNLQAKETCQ

UGT1A4 = biological target: T6, UGT1A4 (Homo sapiens, UniProt P22310); assay: Reaction phenotyping, rUGT1A4; details: recombinant UGT1A4, pH 7.4
T6 sequence (P22310 29-534): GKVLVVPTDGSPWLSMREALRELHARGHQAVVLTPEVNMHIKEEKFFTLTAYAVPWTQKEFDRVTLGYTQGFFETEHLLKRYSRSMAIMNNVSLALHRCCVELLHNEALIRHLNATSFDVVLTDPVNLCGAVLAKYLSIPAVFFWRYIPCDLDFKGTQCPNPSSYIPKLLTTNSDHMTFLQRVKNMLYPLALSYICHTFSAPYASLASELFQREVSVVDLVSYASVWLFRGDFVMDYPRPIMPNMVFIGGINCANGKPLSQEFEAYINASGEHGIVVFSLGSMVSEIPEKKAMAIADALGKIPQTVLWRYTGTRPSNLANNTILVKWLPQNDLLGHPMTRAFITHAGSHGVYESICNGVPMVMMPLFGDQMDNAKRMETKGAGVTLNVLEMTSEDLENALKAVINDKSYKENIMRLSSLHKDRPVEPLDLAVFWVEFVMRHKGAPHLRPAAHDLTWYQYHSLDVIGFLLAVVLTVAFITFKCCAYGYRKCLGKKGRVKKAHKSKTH

CYP1A2 = biological target: T7, CYP1A2 (Homo sapiens, UniProt P05177); assay: Reaction phenotyping, rCYP1A2; details: recombinant CYP1A2, pH 7.4
T7 sequence (P05177 1-516): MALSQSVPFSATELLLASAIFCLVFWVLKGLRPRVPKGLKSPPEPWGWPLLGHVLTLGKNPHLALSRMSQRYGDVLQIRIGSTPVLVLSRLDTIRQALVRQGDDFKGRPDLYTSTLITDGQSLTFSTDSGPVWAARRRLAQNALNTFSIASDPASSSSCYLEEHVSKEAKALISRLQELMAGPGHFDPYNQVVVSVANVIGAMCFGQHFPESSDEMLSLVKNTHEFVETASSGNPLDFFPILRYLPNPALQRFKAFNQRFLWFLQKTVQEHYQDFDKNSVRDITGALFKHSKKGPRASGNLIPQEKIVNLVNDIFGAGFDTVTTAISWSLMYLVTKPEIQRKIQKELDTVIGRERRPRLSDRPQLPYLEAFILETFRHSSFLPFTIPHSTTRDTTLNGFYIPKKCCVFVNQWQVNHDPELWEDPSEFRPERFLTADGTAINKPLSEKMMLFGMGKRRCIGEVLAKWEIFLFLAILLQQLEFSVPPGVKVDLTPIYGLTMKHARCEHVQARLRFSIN

CYP1A1 = biological target: T8, CYP1A1 (Homo sapiens, UniProt P04798); assay: Reaction phenotyping, rCYP1A1; details: recombinant CYP1A1, pH 7.4
T8 sequence (P04798 1-512): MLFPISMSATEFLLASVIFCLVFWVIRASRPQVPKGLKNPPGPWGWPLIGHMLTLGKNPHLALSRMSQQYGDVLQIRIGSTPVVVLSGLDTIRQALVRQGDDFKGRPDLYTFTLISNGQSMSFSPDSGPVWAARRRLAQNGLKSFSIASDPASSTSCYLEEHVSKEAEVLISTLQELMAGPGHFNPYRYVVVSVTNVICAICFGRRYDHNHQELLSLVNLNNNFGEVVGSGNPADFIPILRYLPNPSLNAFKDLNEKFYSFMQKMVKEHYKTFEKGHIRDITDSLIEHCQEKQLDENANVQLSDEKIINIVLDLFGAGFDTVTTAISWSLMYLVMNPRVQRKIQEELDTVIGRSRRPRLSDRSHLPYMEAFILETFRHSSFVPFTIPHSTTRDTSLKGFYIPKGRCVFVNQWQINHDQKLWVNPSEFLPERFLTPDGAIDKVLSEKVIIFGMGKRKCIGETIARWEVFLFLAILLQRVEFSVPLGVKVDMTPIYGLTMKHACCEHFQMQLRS

SMILES: COc1c(C)c2c(c(O)c1C/C=C(\C)CCC(=O)O)C(=O)OC2 [Mycophenolic acid]
remaining at 1 h, 0.2 µM (UGT1A9): 0%

SMILES: Cc1cc(=O)oc2cc(O)ccc12 [4-methylumbelliferone]
remaining at 1 h, 10 µM (UGT1A7): 70.9%
remaining at 1 h, 2 µM (UGT1A8): 49.9%
remaining at 1 h, 2 µM [1]: 0.82%
remaining at 1 h, 2 µM (UGT1A6): 5.26%

SMILES: CCOc1ccc2nc3ccc(=O)cc-3oc2c1 [7-ethoxyresorufin]
Known Substrate (% Remaining at 60 min) (rCYP1B1): 7-ethoxyresorufin (35.11) %

SMILES: CCOc1ccc(NC(C)=O)cc1 [Phenacetin]
remaining at 1 h, 10 µM (CYP1A2): 65.8%
remaining at 1 h, 10 µM (CYP1A1): 41%

Now from value to compound:

remaining at 1 h, 10 µM (UGT2B7): 74.4%
SMILES: Cc1cn([C@H]2C[C@H](N=[N+]=[N-])[C@@H](CO)O2)c(=O)[nH]c1=O [Zidovudine]

remaining at 1 h, 0.5 µM (UGT1A4): 73.1%
SMILES: CN1CCN(CCCN2c3ccccc3Sc3ccc(C(F)(F)F)cc32)CC1 [Trifluoperazine]
